No end group written: not given here.
Key:
[1] = system: human xenograft fibroblasts; test: scRNA-seq of human xenograft wounds at POD 14; format: in vivo
Protocol: To assess if P1i acts on similar fibroblast clusters to cause regeneration, scRNA-seq analysis was performed on xenografts harvested at POD 14 post injury using a hybrid human-mouse xeno-transcriptome (FIG. 12A). Mouse cells were removed informatically and subsequent analysis focused exclusively on human cells (FIG. 41A). Partitional analysis identified 8 transcriptionally distinct clusters (FIG. 12B-C), corresponding to fibroblast and keratinocyte populations (FIG. 41A). Each cluster was present in all three treatment conditions but Cluster 3 was elevated in P1i treated wounds (FIG. 12D, FIG. 41B). […] This cluster was also enriched for pathways such as “skin morphogenesis”, as well as “neural crest differentiation” (FIG. 12G). By contrast, Cluster 0 was enriched for pathways related to adipocyte differentiation (FIG. 41C) and elevated expression of genes related to adipocyte-fibroblast transition (FIG. 41C) including expression of JUN a transcription factor associated with fibrosis (FIG. 41D).

[2] = system: dorsal excisional wounds; test: Splinted dorsal excisional wounding with inhibitor injected at POD 0; format: in vivo, mouse
[3] = system: human foreskin xenograft wounds; test: CODEX analysis of human xenograft wounds at POD 14; format: in vivo
Source text: (§1) To spatially phenotype the pig specimens, we used Co-Detection by Indexing (CODEX), a novel assay in which markers are labeled with oligonucleotide-conjugated antibodies and iteratively imaged between cyclic additions and washouts of dye-labeled oligonucleotides. A custom CODEX panel was designed to assess wound cells within the tissue see Table 1). In brief, primary antibodies were individually barcoded and validated using the commercial supplier's protocols. OCT for mouse or paraffin blocks for human xenograft (n=3 per group) were sectioned at 8 μm thickness onto coverslips for CODEX antibody staining. Antigens were retrieved by standard citrate-EDTA processing prior to addition of CODEX antibodies. Using a CODEX-integrated Keyence BZ-X instrument (Akoya Biosciences) image acquisition was then performed. Using software from Akoya Biosciences the raw images were process, with cell segmentation, and rendering.
(§2) The CODEX was visualized using Akoya Biosciences Multiplex Analysis Viewer (MAV) in ImageJ. The resulting .fcs files were then concatenated in FlowJo and imported into the Monocle3 and STvEA R packages for further analysis. After debris removal, the processed UMAP manifold was analyzed through Monocle3 with a post-manifold threshold of >10,000 cells per cluster. Analysis of the protein staining patterns was then used to assign cell types. The cell interactions were then inferred using STvEA for cell types at >2.5% of total abundance at k=20 nearest neighbors to quantify cell spatial interactions, and differential interaction maps were generated using graph scores.
While scRNA-seq of human xenografts investigates human fibroblast subpopulations at a transcriptomic level, we further utilized CODEX to analyze spatially defined protein expression and cellular organization (FIG. 13A; markers shown in Table 1 right column). Specifically, we compared the spatial microenvironment of PBS, P1i, and unwounded skin at POD 14. […]

[4] = system: human adipocytes; test: Human adipocyte-populated collagen I hydrogels with or without mechanical stretch; details: 10% equibiaxial strain, 7 days
[5] = system: mouse adipocytes; test: Proliferation and apoptosis assays for treatment toxicity; format: cell-based; details: 0.5x, 1x, 2x standard concentration [500 nm], 7 days
Protocol: P1i and P2i treated adipocytes (and fibroblast controls) were examined for treatment toxicity using proliferation and apoptosis assays. […] Then, cells were treated with either 0.5×, 1×, or 2× the standard concentration of Piezo1 or Piezo2 inhibitors [500 nm]. After 7 days of treatment, cells were fixed or harvested for analysis of potential toxicity. For proliferation, EdU (5-ethynyl-2′-deoxyuridine) incorporation in vitro was investigated on differentiated adipocytes and undifferentiated fibroblasts using the Click-iT™ EdU Cell Proliferation Kit for Imaging, Alexa Fluor™ 488 dye (ThermoFisher, Cat: C10337). Proliferation was detected according to the manufacturer's guidelines. To evaluate apoptosis, the Annexin V Apoptosis Detection Kit-AF647 (Abcam, Cat: 219919) was used according to the manufacturer's guidelines.

[6] = system: wounds; test: CODEX spatial protein analysis of POD 14 wounds; format: in vivo, mouse; details: POD 14, vs PBS
Source text: as §1, §2

In the case of “GsMTx4 (GCLEFWWKCNPNDDKCCRPKLKCSKLFKLCNFSF; ends and bridges not checked; cysteine pairing not given here; UniProt Q7YT39 47-80, looked up) [P1i]”, the “expression of TWIST2, WNT5A, CALU and SFRP2” value ([1]; POD 14) is reported as “highly expressed”, the “representation of human cluster 3” value ([1]; POD 14) is reported as “elevated” and the “CellChat cluster 0 activity with other clusters” value ([1]; POD 14, vs control wounds) is reported as “downregulation”. For the same substance, the “time to complete wound re-epithelialization” value ([2]; 30 uL of 0.2 mg/ml intradermal at wound edge, POD 0) was “did not significantly affect”, the “Oil Red O staining and IF for cytokeratins 14/19 (regenerating appendages)” value ([2]; POD 14) was “presence of putative regenerating sebaceous glands/HF” and the “mechanical properties (tensile testing, Young's modulus)” value ([2]; POD 14) was “reverted scars to more unwounded-like mechanical properties”. For the same substance, the “adipocyte-derived fibroblasts (ADFs) in wounds” value ([2]; POD 14, FACS and histology) was “absent”, the “structures consistent with unerupted hair follicles” value ([2]; POD 14, single injection at POD 0) was “numerous structures morphologically consistent with unerupted hair follicles” and the “Col1 and α-SMA” value ([2]; POD 14 and POD 30) was “reduced”. For the same substance, the ECM density ([2]; POD 14 and POD 30) was “less dense”, the hair follicle formation ([2]; POD 30) was “allowed for hair follicle formation” and the “interactions between fibroblasts and adipocytes” value ([3]; POD 14) was “PBS-treated wounds showed broadly enriched interactions between fibroblasts and adipocytes compared to P1i-treated wounds”. For the same substance, the “interactions of adipocytes 4” value ([3]; POD 14) was “strong crosstalk between adipocytes 4 and epithelial cells”, the “relative proportions of CODEX defined adipocyte clusters” value ([3]; POD 14, vs PBS, p<0.05) was “fewer of the adipocyte 1 subtype and more of the adipocyte 4 subtype” and the “stretch-induced hypertrophy of human adipocytes” value [4] was “reversed”. The “percentage of cells positive for EdU, annexin V or DAPI by FACS” value [5] was “None of the markers' expression was significantly different”, the “Lef1 (new hair follicle formation)” value [6] was “highly expressed” and the “adipocyte-fibroblast spatial interactions (CODEX)” value [6] was “reduced adipocyte-fibroblast interactions”. For the same substance, the “individual adipocyte-fibroblast subpopulation interactions (CODEX)” value [6] was “enriching the interactions of adipocyte cluster 2 with fibroblast clusters 2 and 4”.

Source: patent US20250195474A1, “Piezo Inhibition for Wound Healing” (priority 2022, published 2025)
